The target in series [1] is K+ current (IK), K channels (Doryteuthis opalescens, UniProt Q25376). It is filed as cell-based, squid Loligo opalescens.
In series [2] the test system is IK in GH3 cells. It is filed as cell-based, rat. As to conditions: read-out: apparent KD for IK block.
Series [3] addresses Na+ current (INa) (Doryteuthis opalescens, UniProt Q25377). It is filed as cell-based, squid Loligo opalescens.
Series [4] relates to Ca2+ current (ICa). Format: cell-based, squid Loligo opalescens.
The conditions of series [5]: ref Kaufman et al., 1975; cited from earlier work.
A short description of series [6]: pKa of methadone. Format: physicochemical. As to conditions: implied by pKa.
Setting [7] is: Fig. 4: 100 μM, +80 mV, 100K//200K.
[8] abbreviates: Fig. 12 A: 100 μM, +60 mV, 10K//100K, model C.
Setting [9] is: Fig. 12 B: 10 °C, 100 μM, +60 mV, 10K//50K.
Where [10] appears, read: Fig. 12 B: 20 °C, 100 μM, +60 mV, 10K//50K.

This is an account of results in paper PMC2219262 (The Journal of General Physiology, 1996).

“And” between values parts separate entries of the source, which are not always exact repeats. Equal entries are not always repeated. “Also recorded” adds a separate entry of the source. Where two headings read alike, the source gives them in different places.

Na+ current (INa), sequence (Q25377 1-1784): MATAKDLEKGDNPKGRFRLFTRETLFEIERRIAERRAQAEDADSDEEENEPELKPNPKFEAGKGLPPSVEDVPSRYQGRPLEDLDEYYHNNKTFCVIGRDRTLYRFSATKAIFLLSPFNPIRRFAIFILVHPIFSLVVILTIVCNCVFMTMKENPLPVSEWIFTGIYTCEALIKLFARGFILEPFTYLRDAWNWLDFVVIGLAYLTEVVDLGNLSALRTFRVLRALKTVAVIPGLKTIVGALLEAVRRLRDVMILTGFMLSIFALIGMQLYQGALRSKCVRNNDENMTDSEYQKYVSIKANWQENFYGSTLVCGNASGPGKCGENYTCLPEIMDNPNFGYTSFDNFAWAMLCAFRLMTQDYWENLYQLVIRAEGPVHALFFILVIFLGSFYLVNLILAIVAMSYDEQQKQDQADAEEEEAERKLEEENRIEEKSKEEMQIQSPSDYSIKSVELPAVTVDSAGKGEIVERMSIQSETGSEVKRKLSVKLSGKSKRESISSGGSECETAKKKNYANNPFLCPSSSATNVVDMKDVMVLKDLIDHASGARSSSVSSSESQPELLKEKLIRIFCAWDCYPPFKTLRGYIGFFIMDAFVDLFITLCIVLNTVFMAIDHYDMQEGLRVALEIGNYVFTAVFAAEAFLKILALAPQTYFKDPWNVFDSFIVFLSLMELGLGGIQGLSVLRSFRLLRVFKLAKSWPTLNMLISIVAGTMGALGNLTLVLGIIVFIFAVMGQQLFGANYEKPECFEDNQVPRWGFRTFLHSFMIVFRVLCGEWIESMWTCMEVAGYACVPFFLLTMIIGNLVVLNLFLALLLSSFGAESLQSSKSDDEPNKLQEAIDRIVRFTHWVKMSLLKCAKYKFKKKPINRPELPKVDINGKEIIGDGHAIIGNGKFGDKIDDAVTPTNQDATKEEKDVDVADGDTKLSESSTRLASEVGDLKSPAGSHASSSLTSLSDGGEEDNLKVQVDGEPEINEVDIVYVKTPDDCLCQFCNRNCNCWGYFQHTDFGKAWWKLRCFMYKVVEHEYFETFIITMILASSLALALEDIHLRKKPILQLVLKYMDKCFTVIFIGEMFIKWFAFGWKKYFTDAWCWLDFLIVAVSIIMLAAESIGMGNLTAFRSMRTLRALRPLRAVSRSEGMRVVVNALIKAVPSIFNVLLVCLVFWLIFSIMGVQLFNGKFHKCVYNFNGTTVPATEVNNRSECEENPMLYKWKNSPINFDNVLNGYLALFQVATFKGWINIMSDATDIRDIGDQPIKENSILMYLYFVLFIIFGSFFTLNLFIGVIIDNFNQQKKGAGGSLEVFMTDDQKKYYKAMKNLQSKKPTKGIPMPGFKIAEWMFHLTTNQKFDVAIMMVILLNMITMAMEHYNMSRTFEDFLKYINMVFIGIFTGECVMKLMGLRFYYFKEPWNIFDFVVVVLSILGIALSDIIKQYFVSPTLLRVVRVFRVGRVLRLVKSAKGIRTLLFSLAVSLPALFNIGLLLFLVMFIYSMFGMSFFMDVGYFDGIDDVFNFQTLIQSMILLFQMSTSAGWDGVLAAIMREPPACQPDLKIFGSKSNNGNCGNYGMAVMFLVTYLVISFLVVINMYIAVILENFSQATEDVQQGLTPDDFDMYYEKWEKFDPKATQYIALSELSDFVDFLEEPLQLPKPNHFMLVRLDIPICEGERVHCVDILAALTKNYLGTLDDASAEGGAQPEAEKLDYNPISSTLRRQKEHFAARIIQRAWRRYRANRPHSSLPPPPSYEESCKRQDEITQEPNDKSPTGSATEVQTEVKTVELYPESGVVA
K+ current (IK), K channels, sequence (Q25376 1-488): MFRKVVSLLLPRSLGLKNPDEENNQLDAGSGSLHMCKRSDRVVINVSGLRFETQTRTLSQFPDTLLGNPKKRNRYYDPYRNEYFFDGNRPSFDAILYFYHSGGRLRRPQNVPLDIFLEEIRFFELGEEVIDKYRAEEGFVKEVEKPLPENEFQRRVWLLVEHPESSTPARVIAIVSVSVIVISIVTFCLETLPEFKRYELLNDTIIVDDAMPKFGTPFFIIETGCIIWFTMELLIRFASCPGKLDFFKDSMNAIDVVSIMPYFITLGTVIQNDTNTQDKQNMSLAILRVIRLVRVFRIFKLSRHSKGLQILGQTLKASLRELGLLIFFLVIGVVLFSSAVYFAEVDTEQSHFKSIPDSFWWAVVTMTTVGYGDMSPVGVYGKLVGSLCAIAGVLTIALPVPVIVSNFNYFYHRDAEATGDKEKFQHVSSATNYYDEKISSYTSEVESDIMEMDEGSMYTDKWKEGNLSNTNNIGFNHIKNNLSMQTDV

As for `CCC(=O)C(C[C@@H](C)N(C)C)(c1ccccc1)c1ccccc1` [(-)methadone], the “factor of increase of rate of block (K) from 10 to 20 °C” value in series [1] was 2.1. For the same compound, the “steady state IK as % of control” value in series [1] (100 μM, 25-ms depolarization to +80 mV, 100K//200K) came out at 27%. Also, the “rate of block (K)” value is given as 2.6 ms-1 mM-1 in series [1] (setting [7]), 2.2 ms-1 mM-1 in series [1] (setting [8]), 1.5 ms-1 mM-1 in series [1] (setting [9]) and 3.2 ms-1 mM-1 in series [1] (setting [10]). Besides, the “rate of unblock (L)” value in series [1] (setting [7]) came to 0.096 ms-1; in series [1] (setting [8]), 0.062 ms-1; in series [1] (setting [9]), 0.060 ms-1; in series [1] (setting [10]), 0.084 ms-1.

For the compound `CCC(=O)C(C[C@H](C)N(C)C)(c1ccccc1)c1ccccc1` [(+)methadone], in series [1] (setting [8]), the “rate of block (K)” value is on record as 2.3 ms-1 mM-1 and the “rate of unblock (L)” value came out at 0.142 ms-1.

On to `C=CCN1CC[C@]23c4c5ccc(O)c4O[C@H]2C(=O)CC[C@@]3(O)[C@H]1C5` [naloxone], for which, in series [1] (data not shown), the “effect on the ability of methadone to block IK” value is “did not prevent”.

Take `CCC(=O)O[C@](Cc1ccccc1)(c1ccccc1)[C@H](C)CN(C)C` [propoxyphene]: the Kd in series [2] is 31 µM and ~30 µM.

Consider `CCC(=O)C(CC(C)[N+](C)(C)C)(c1ccccc1)c1ccccc1.[I-]` (centres unmarked) [N-methyl-methadone], for which the “effect on INa when applied externally” value in series [3] (1 mM external) is reported as “no effect”. For the same compound, the “effect on IK when applied externally” value in series [1] (1 mM external) is “without effect; also recorded: no effect”. Moreover, the “effect of changes in external pH on IK block” value in series [1] (internally applied, data not shown) was “do not affect”. Further, the “effect on ICa when applied externally” value in series [4] (1 mM external) is “no effect”.

In the case of (±)methadone, in series [3] (50 μM, repetitive depolarization to +10 mV at 4 Hz), the “use-dependent effect on peak INa” value is reported as “no detectable effect”. The “use-dependent reduction in peak INa amplitude” value in series [3] (50 μM, repetitive depolarization to +70 mV, 5-ms pulses at 4 Hz, Hp -80 mV) is given as 20%.

On to `CCC(=O)C(CC(C)N(C)C)(c1ccccc1)c1ccccc1` (centres unmarked) [methadone], for which the pKa in series [5] was 9.64. In addition, the “fraction of drug molecules charged at physiological pH” value in series [6] is reported as over 99%. Moreover, the “ICa block at small depolarizations” value in series [4] (-10 and -20 mV, 200 and 500 μM methadone) is recorded as “Little or no block”.

Take `CN1CC[C@]23c4c5ccc(O)c4O[C@H]2[C@@H](O)C=C[C@H]3[C@H]1C5` [morphine]: the “effect on INa” value in series [3] (350 μM, data not shown) was “no detectable effect”. In addition, in series [1] (350 μM, +30 mV), the “effect on IK” value is “no detectable effect”. Further, in series [4] (350 μM, data not shown), the “effect on ICa” value is “no detectable effect”.

One may read the pKa as the pH at which an ionisable group is half protonated.
